For experiment [1], the system named is mouse splenocytes. Kind of experiment: Splenic cell proliferation assay (anti-IgM stimulated B cell proliferation, Cell Titer-Glo). Particulars: Splenocyte; CD1 mouse splenocytes, 1 h pre-treatment, 2.5 ug/ml anti-IgM F(ab')2 for 72 h; read-out: EC50 (nM), Inhibition of splenic cell proliferation. Type of experiment: cell-based. How it is done:
Splenic Cell Proliferation Assay
Splenocytes were obtained from 6 week old male CD1 mice (Charles River Laboratories Inc.). Mouse spleens were manually disrupted in PBS and filtered using a 70 μm cell strainer followed by ammonium chloride red blood cell lysis. Cells were washed, resuspended in Splenocyte Medium (HyClone RPMI supplemented with 10% heat-inactivated FBS, 0.5× non-essential amino acids, 10 mM HEPES, 50 uM beta mercaptoethanol) and incubated at 37° C., 5% CO2 for 2 h to remove adherent cells. Suspension cells were seeded in 96 well plates at 50,000 cells per well and incubated at 37° C., 5% CO2 for 1 h. Splenocytes were pre-treated in triplicate with 10,000 nM curves of Formula 1 compounds for 1 h, followed by stimulation of B cell proliferation with 2.5 ug/ml anti-IgM F(ab′)2 (Jackson ImmunoResearch) for 72 h. Cell proliferation was measured by Cell Titer-Glo Luminescent Assay (Promega). EC50 values (50% proliferation in the presence of compound as compared to vehicle treated controls) were calculated from dose response compound curves using GraphPad Prism Software.
EC50 values are reported in Table 4: • a—Less than 100 nM; b—less than 1000 nM; c—more than 1000 nM

Experiment [2] deals with T1, histidine tagged recombinant human full-length Bruton Agammaglobulinemia Tyrosine Kinase (Btk) (Homo sapiens, UniProt Q06187).
T1 construct: recombinant human full-length Bruton Agammaglobulinemia Tyrosine Kinase (Btk); histidine tag
T1 sequence (Q06187 whole entry): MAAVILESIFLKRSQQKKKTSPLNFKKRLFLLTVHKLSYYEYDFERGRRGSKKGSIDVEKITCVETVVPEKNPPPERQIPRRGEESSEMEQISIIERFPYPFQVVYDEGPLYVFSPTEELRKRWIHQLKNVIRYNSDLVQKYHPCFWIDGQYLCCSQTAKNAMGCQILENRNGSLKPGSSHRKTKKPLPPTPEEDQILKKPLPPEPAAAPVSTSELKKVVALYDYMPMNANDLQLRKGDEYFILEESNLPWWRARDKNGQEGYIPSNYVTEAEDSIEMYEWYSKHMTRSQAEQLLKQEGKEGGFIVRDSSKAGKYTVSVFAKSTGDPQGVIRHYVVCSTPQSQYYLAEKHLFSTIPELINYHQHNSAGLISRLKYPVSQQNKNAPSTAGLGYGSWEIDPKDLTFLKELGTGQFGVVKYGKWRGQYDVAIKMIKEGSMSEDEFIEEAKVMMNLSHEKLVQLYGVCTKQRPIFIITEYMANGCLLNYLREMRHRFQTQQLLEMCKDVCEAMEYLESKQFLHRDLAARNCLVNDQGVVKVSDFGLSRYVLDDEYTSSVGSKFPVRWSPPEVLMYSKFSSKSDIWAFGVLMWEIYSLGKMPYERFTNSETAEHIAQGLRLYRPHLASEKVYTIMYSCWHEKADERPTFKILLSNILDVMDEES
The experiment in a line: Btk kinase inhibition assay (fluorescence polarization, KinEASE FP Fluorescein Green). Format: biochemical. To be noted: 10 μM ATP, 250 μM substrate, 60 minutes, room temperature; Ki from IC50 by Cheng-Prusoff; read-out: ki50 (nM), Inhibition of Btk. On the procedure: Kinase Binding Btk and Lck Kinase Inhibition Assay
Fluorescence polarization-based kinase assays were performed in 384 well-plate format using histidine tagged recombinant human full-length Bruton Agammaglobulinemia Tyrosine Kinase (Btk) or histidine tagged recombinant Human Lymphocyte-Specific Protein Tyrosine Kinase (Lck) and a modified protocol of the KinEASE™ FP Fluorescein Green Assay supplied from Millipore. Kinase reaction were performed at room temperature for 60 minutes in presence of 250 μM substrate, 10 μM ATP and variable test article concentrations. The reaction was stopped with EDTA/kinease detection reagents and the polarization measured on a Tecan 500 instrument. From the dose-response curve obtained, the IC50 was calculated using Graph Pad Prisms® using a non-linear fit curve. The Km for ATP on each enzyme was experimentally determined and the Ki values calculated using the Cheng-Prusoff equation (see: Cheng Y, Prusoff W H. (1973) Relationship between the inhibition constant (K1) and the concentration of inhibitor which causes 50 percent inhibition (I50) of an enzymatic reaction”. Biochem Pharmacol 22 (23): 3099-108).
ki values are reported in Tables 2 and 3: • a—Less than 100 nM; b—less than 1000 nM; c—more than 1000 nM
Background: Polarisation of emitted light reports the rotation of a fluorescent probe.

Regarding `Cc1nc(COc2cccc(Oc3ccc(-n4c5c(c6ncnc(N)c64)C(C)OC5)cc3)c2)no1` (stereo not shown) [Compound 87], the EC50 in experiment [1] is above 1000 nM. Further, the Ki in experiment [2] was below 100 nM. As for `CC1OCc2c1c1ncnc(N)c1n2-c1ccc(Oc2cccc(N3CCOCC3)c2)cc1` (stereo not shown) [Compound 91], the Ki in experiment [2] was below 1000 nM. As for `CC1OCc2c1c1ncnc(N)c1n2-c1ccc(Oc2cccc(NC(=O)c3cccc(Cl)c3)c2)cc1` (stereo not shown) [Compound 119], the EC50 in experiment [1] fell in the range of 100 to 1000 nM. Besides, the Ki in experiment [2] is below 100 nM.

`CC1OCc2c1c1ncnc(N)c1n2-c1ccc(Oc2cccc(NS(=O)(=O)Cc3ccccc3)c2)cc1` (stereo not shown) [Compound 81]: the EC50 in experiment [1] was above 1000 nM. For the same molecule, in experiment [2], the Ki was below 100 nM. Consider `CC1OCc2c1c1ncnc(N)c1n2-c1ccc(Oc2cccc(NS(=O)(=O)c3ccccc3)c2)cc1` (stereo not shown) [Compound 80], for which, in experiment [1], the EC50 is above 1000 nM. Further, the Ki in experiment [2] is below 1000 nM. As to `CC1OCc2c1c1ncnc(N)c1n2-c1ccc(Oc2cccc(OCc3cccc(NC(=O)C4CC4)c3)c2)cc1` (stereo not shown) [Compound 133], the EC50 in experiment [1] is below 100 nM. Also, the Ki in experiment [2] is below 100 nM.

Take `CC1OCc2c1c1ncnc(N)c1n2-c1ccc(Oc2cccc(NC(=O)c3ccccc3)c2)cc1` (stereo not shown) [Compound 82]: the EC50 in experiment [1] is above 1000 nM. The Ki in experiment [2] was below 100 nM.

As for `CC1OCc2c1c1ncnc(N)c1n2-c1ccc(Oc2cccc(OCc3ccccc3C#N)c2)cc1` (stereo not shown) [Compound 96], in experiment [1], the EC50 was below 100 nM. Moreover, the Ki in experiment [2] is below 100 nM. For the molecule `CC(=O)Nc1cccc(Oc2ccc(-n3c4c(c5ncnc(N)c53)C(C)OC4)cc2)c1` (stereo not shown) [Compound 55], the Ki in experiment [2] is below 1000 nM. For `CC1OCc2c1c1ncnc(N)c1n2-c1ccc(Oc2cccc(OCc3ccccn3)c2)cc1` (stereo not shown) [Compound 75], the EC50 in experiment [1] was above 1000 nM. In experiment [2], the Ki is below 100 nM. As to `Cc1nc(COc2cccc(Oc3ccc(-n4c5c(c6ncnc(N)c64)C(C)OC5)cc3)c2)cs1` (stereo not shown) [Compound 102], the EC50 in experiment [1] is 100 to 1000 nM. The Ki in experiment [2] is below 100 nM. Consider `CC(C)CC(=O)Nc1cccc(Oc2ccc(-n3c4c(c5ncnc(N)c53)C(C)OC4)cc2)c1` (stereo not shown) [Compound 114], for which the EC50 in experiment [1] lay in the range of 100 to 1000 nM. The Ki in experiment [2] is below 100 nM. On the same counts, the results for `COc1cccc(C(=O)Nc2cccc(Oc3ccc(-n4c5c(c6ncnc(N)c64)C(C)OC5)cc3)c2)c1` (stereo not shown) [Compound 118] are 100 to 1000 nM and below 100 nM. As to `CC(=O)Nc1cccc(COc2cccc(Oc3ccc(-n4c5c(c6ncnc(N)c64)C(C)OC5)cc3)c2)c1` (stereo not shown) [Compound 106], the EC50 in experiment [1] fell in the range of 100 to 1000 nM. The Ki in experiment [2] is below 100 nM.

For `CC1OCc2c1c1ncnc(N)c1n2-c1ccc(Oc2cccc(OCc3cccc(OCCN(C)C)c3)c2)cc1` (stereo not shown) [Compound 139], the EC50 in experiment [1] is 100 to 1000 nM. The Ki in experiment [2] was below 100 nM. `CC1OCc2c1c1ncnc(N)c1n2-c1ccc(Oc2cccc(OCc3ccc(C(N)=O)cc3)c2)cc1` (stereo not shown) [Compound 98]: the Ki in experiment [2] was below 100 nM. `CC1OCc2c1c1ncnc(N)c1n2-c1ccc(Oc2cccc(OCC3CCCC3)c2)cc1` (stereo not shown) [Compound 140]: the EC50 in experiment [1] is 100 to 1000 nM. Besides, the Ki in experiment [2] was below 1000 nM. In the same order, the values of `COCC(=O)Nc1cccc(COc2cccc(Oc3ccc(-n4c5c(c6ncnc(N)c64)C(C)OC5)cc3)c2)c1` (stereo not shown) [Compound 132] are 100 to 1000 nM and below 100 nM. Consider `CC1OCc2c1c1ncnc(N)c1n2-c1ccc(Oc2cccc(NC(=O)Cc3ccccc3)c2)cc1` (stereo not shown) [Compound 84], for which the EC50 in experiment [1] was above 1000 nM. Moreover, the Ki in experiment [2] is below 100 nM. As to `Nc1ncnc2c3c(n(-c4ccc(Oc5ccccc5)cc4)c12)CN(Cc1ccccc1)C3` [Compound 10], the Ki in experiment [2] was above 1000 nM. Turning to `COc1ccc(COc2cccc(Oc3ccc(-n4c5c(c6ncnc(N)c64)CCC5)cc3)c2)cc1` [Compound 129], the EC50 in experiment [1] lay in the range of 100 to 1000 nM. Further, in experiment [2], the Ki is below 100 nM.

For the molecule `CC1OCc2c1c1ncnc(N)c1n2-c1ccc(Oc2cccc(OCCN3CCCC3)c2)cc1` (stereo not shown) [Compound 52], the Ki in experiment [2] is above 1000 nM. Regarding `CC1OCc2c1c1ncnc(N)c1n2-c1ccc(Oc2cccc(OCc3cccc(Cl)c3)c2)cc1` (stereo not shown) [Compound 97], the EC50 in experiment [1] lay in the range of 100 to 1000 nM. In addition, the Ki in experiment [2] is below 100 nM. As to `CC1OCc2c1c1ncnc(N)c1n2-c1ccc(Oc2cccc(OCCC3CCCCC3)c2)cc1` (stereo not shown) [Compound 124], the EC50 in experiment [1] lay in the range of 100 to 1000 nM. Moreover, the Ki in experiment [2] is below 100 nM. As for `CCCCOc1cccc(Oc2ccc(-n3c4c(c5ncnc(N)c53)C(C)OC4)cc2)c1` (stereo not shown) [Compound 136], the EC50 in experiment [1] lay within 100 to 1000 nM. Also, in experiment [2], the Ki is below 100 nM.

Regarding `N#Cc1ccccc1OCc1cccc(Oc2ccc(-n3c4c(c5ncnc(N)c53)COC4)cc2)c1` [Compound 142], the EC50 in experiment [1] was in the range of 100 to 1000 nM. In addition, the Ki in experiment [2] is below 100 nM. In the same order, the values of `CC1OCc2c1c1ncnc(N)c1n2-c1ccc(Oc2ccncc2)cc1` (stereo not shown) [Compound 74] are above 1000 nM and above 1000 nM. In the same order, the values of `CC1OCc2c1c1ncnc(N)c1n2-c1ccc(Oc2cccc(COc3ccccc3C#N)c2)cc1` (stereo not shown) [Compound 134] are below 100 nM and below 100 nM.

On to `Cc1nc(-c2cccc(Oc3ccc(-n4c5c(c6ncnc(N)c64)CCC5)cc3)c2)cs1` [Compound 117], for which the EC50 in experiment [1] lay in the range of 100 to 1000 nM. Moreover, the Ki in experiment [2] is below 100 nM. For `CC(=O)Nc1cccc(COc2cccc(Oc3ccc(-n4c5c(c6ncnc(N)c64)CCC5)cc3)c2)c1` [Compound 130], the EC50 in experiment [1] is 100 to 1000 nM. Further, the Ki in experiment [2] was below 100 nM. `CC1OCc2c1c1ncnc(N)c1n2-c1ccc(Oc2cccc(N)c2)cc1` (stereo not shown) [Compound 47]: in experiment [2], the Ki was below 1000 nM. `Nc1ncnc2c3c(n(-c4ccc(Oc5ccccc5)cc4)c12)CCN(C(=O)c1ccccc1)C3` [Compound 16]: in experiment [2], the Ki was above 1000 nM. Consider `CC1OCc2c1c1ncnc(N)c1n2-c1ccc(Oc2cccc(OCc3ccccc3Cl)c2)cc1` (stereo not shown) [Compound 107], for which, in experiment [1], the EC50 is below 100 nM. Besides, the Ki in experiment [2] was below 100 nM. As for `CC1OCc2c1c1ncnc(N)c1n2-c1ccc(Oc2cccc(OCc3cncn3C)c2)cc1` (stereo not shown) [Compound 93], the Ki in experiment [2] was below 100 nM. On to `CC(=O)Nc1ccccc1OCc1cccc(Oc2ccc(-n3c4c(c5ncnc(N)c53)C(C)OC4)cc2)c1` (stereo not shown) [Compound 141], for which the EC50 in experiment [1] lay in the range of 100 to 1000 nM. In addition, the Ki in experiment [2] was below 1000 nM. Consider `CC1OCc2c1c1ncnc(N)c1n2-c1ccc(Oc2cccc(NC(=O)c3cccc(F)c3)c2)cc1` (stereo not shown) [Compound 121], for which the EC50 in experiment [1] lay in the range of 100 to 1000 nM. Besides, the Ki in experiment [2] was below 100 nM. On the same counts, the results for `COc1ccccc1C(=O)Nc1cccc(Oc2ccc(-n3c4c(c5ncnc(N)c53)C(C)OC4)cc2)c1` (stereo not shown) [Compound 127] are 100 to 1000 nM and below 100 nM. In the same order, the values of `Nc1ncnc2c3c(n(-c4ccc(Oc5ccccc5)cc4)c12)CS(=O)(=O)C3` [Compound 65] are above 1000 nM and above 1000 nM.

Turning to `CC1OCc2c1c1ncnc(N)c1n2-c1ccc(Oc2cccc(OCCN(C)C)c2)cc1` (stereo not shown) [Compound 48], in experiment [2], the Ki is above 1000 nM. As for `Nc1ncnc2c3c(n(-c4ccc(Oc5ccccc5)cc4)c12)CCN(C(=O)OCc1ccccc1)C3` [Compound 6], the Ki in experiment [2] was above 1000 nM. For the molecule `CC1OCc2c1c1ncnc(N)c1n2-c1ccc(Oc2ccccc2)nc1` (stereo not shown) [Compound 88], the Ki in experiment [2] was above 1000 nM. `NCC(=O)N1CCc2c(c3ncnc(N)c3n2-c2ccc(Oc3ccccc3)cc2)C1` [Compound 17]: the Ki in experiment [2] is above 1000 nM.

For the molecule `Nc1ncnc2c3c(n(-c4ccc(Oc5ccccc5)cc4)c12)CCN(Cc1ccccc1)C3` [Compound 11], the Ki in experiment [2] is above 1000 nM. Turning to `Nc1ncnc2c3c(n(-c4ccc(Oc5ccccc5)cc4)c12)CN(C(=O)OCc1ccccc1)C3` [Compound 5], the Ki in experiment [2] is above 1000 nM. For `Nc1ncnc2c3c(n(-c4ccc(Oc5ccccc5)cc4)c12)CCN(S(=O)(=O)c1ccccc1)C3` [Compound 12], the Ki in experiment [2] is above 1000 nM. On the same count and under the same terms, the same measure for `CC1OCc2c1c1ncnc(N)c1n2-c1ccc(Oc2cccc(OCc3ccccc3C(N)=O)c2)cc1` (stereo not shown) [Compound 101]: below 1000 nM; for `NCC(=O)N1Cc2c(n(-c3ccc(Oc4ccccc4)cc3)c3c(N)ncnc23)C1` [Compound 19]: above 1000 nM.

With `CC1OCc2c1c1ncnc(N)c1n2-c1ccc(Oc2cccc(OCCN3CCOCC3)c2)cc1` (stereo not shown) [Compound 51], in experiment [2], the Ki is above 1000 nM. On the same count and under the same terms, the result for `CC(=O)Nc1ccc(COc2cccc(Oc3ccc(-n4c5c(c6ncnc(N)c64)C(C)OC5)cc3)c2)cc1` (stereo not shown) [Compound 109] reads below 1000 nM.
